pIC50, pKi: −log10 of the molar value. Values after ≈ are worked out from the molar mass of the structure shown. Read-outs that look alike come from different tables or passages of the source. Each block holds one compound with its values, some of them ahead of it.
Legend:
[1] = target: T1, purified recombinant human Aggrecanase-1 (rAgg1) (Homo sapiens, UniProt O75173); experiment: In vitro fluorescence screen for Aggrecanase-1 inhibitors; format: biochemical; conditions: Table 3; for pIC50: read-out: Agg1 IC50; for pKi: read-out: Ki Agg1
T1 sequence (O75173 213-837): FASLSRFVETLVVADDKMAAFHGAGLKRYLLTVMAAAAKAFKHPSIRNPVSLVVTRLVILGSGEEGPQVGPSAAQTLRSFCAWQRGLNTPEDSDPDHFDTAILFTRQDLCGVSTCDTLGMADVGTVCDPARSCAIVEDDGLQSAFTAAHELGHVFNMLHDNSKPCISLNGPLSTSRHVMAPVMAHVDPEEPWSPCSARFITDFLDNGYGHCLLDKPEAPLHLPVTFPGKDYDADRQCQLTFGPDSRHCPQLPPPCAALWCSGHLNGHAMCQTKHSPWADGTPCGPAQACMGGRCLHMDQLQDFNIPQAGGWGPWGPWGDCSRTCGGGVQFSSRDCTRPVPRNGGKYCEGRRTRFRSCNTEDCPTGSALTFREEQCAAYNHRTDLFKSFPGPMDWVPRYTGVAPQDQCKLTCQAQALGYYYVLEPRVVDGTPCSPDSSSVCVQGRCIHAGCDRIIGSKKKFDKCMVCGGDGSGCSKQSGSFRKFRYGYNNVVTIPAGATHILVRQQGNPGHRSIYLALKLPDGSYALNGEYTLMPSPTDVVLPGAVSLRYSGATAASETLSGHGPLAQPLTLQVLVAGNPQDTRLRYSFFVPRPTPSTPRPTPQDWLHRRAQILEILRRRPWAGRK

[2] = target: T2, purified recombinant human Aggrecanase-2 (Ag2t-Phe628-Strep) (Homo sapiens, UniProt Q9UNA0); experiment: In vitro fluorescence screen for Aggrecanase-2 inhibitors; format: biochemical; conditions: Table 3; for pIC50: read-out: Agg 2 IC50; for pKi: read-out: Ki Agg2
T2 construct: the form used is denoted as Ag2t-Phe628-Strep (MW=41,737)
T2 sequence (Q9UNA0 262-628): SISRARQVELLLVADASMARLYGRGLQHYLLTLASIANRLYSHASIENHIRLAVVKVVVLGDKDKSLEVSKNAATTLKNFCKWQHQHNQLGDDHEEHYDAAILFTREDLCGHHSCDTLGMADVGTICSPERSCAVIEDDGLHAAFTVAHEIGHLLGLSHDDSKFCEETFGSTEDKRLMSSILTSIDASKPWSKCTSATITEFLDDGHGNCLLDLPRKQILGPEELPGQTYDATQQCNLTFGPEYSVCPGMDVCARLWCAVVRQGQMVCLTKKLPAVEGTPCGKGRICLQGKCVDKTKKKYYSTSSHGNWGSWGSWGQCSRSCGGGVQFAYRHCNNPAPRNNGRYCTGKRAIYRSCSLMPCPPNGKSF

MMP-8 = MMP-8 (Homo sapiens, UniProt P22894); experiment: MMP-8 of Table 3; format: biochemical; conditions: unit inferred
MMP-8, sequence (P22894 101-467, species assumed): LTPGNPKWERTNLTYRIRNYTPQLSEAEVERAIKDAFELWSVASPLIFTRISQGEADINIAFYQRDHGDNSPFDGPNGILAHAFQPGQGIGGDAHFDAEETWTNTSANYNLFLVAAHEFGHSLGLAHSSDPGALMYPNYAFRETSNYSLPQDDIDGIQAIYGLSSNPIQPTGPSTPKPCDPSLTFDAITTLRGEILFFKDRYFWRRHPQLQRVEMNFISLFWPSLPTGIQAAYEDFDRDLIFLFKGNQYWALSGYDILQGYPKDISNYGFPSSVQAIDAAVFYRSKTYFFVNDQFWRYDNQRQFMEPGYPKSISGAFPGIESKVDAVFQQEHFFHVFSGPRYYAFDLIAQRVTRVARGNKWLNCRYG

MMP-12 = MMP-12 (Homo sapiens, UniProt P39900); experiment: MMP-12 of Table 3; format: biochemical; conditions: unit inferred
MMP-12, sequence (P39900 106-470): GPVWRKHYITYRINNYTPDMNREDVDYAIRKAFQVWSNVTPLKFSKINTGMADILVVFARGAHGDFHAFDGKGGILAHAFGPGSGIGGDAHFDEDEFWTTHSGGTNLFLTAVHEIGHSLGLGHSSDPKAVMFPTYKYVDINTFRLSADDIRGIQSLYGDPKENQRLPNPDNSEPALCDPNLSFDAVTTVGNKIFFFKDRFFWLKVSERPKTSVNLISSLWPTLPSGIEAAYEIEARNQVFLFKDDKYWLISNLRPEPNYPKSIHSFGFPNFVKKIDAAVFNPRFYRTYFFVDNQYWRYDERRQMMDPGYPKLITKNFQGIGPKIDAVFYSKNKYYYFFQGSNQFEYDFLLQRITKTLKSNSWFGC

[3] = system: Aggrecanase-mediated aggrecan cleavage in human OA cartilage explants; experiment: Human osteoarthritic cartilage explant efficacy study (BC3 western analysis); format: cell-based; conditions: for EC50: 144 h, read-out: EC50 (inhibition of aggrecanase generated aggrecan fragments)
Text: Human OA Cartilage Explant Culture: Discarded tissues from consented knee replacement patients were obtained from New England Baptist Hospital (Brookline, Mass.) in sterile phosphate buffered saline (PBS) after about 2-4 hrs post surgery. Cartilage slices were harvested from the knee specimens and washed several times in PBS. These cartilage slices were cut into appropriate pieces (6-8 mm) and rinsed in PBS and then in media and further cultured for additional days as cartilage explants. The medium consisted of Dulbecco's Modified Eagle's medium (DMEM, JRH Biosciences, Lenexa, Kans.), 50 μg/ml ascorbic acid (Wako, Osaka, Japan), 10 mM HEPES, pH 7.0 (Mediatech, Herndon, Va.), 2 mM L-glutamine (Mediatech), 100 U/ml antibiotic-antimycotic solution (Mediatech).
Test compounds: The test compounds are described in Examples 8OO, 8NNNNNNN, and 8WWWWWWW. Stock solutions of the compounds were prepared at 1 mg/ml in DMSO, aliquoted and stored at −20° C. Working solutions of the compounds were made in DMSO and added to the culture for efficacy studies.
Efficacy study: Cartilage explants were cultured for 2-3 days in DMEM medium in a 37° C. and 5% CO2 environment to equilibrate the tissue. Explants were weighed (˜250 mg) and placed in wells of a 24-well culture dish in 1 ml of medium and 3 replicates per treatment group. For the efficacy study, cartilage explants were cultured for 6 days in the presence or absence of various concentrations of the test compound. The media was replaced on day 3 and the experiment was terminated on day 6. Total aggrecan content of conditioned media was measured by a colorimetric assay with DMMB (Farndale, R W et al., Biochim Biophys Acta. 1986, 883, 173-177).
Western analysis: Aggrecan fragments in conditioned medium were analyzed by western analysis using neoepitope antibody, BC-3 designed to recognize the Aggrecanase-generated N-terminal interglobular neoepitope ^374ARGS. Equal cartilage weight equivalent conditioned media from each replicate well per treatment group was pooled and digested with Chondroitinase ABC (Sigma, St Louis, Mo.), Keratinase I (Seikagaku America, Falmouth, Mass.) and Keratinase II (Seikagaku America, Falmouth, Mass.) for 2 h at 37° C. Samples were concentrated by YM-10 centrifugal filter device (Millipore Corp., Bedford, Mass.), lyophilized and reconstituted with equal volume of water. Samples were separated under reducing conditions on 4-12% gradient Tris-glycine gels (Invitrogen, Carlsbad, Calif.). Proteins from the gels were transferred to nitrocellulose membranes. Immunoblots were probed using Mab BC-3 (Abcam, Cambridge, Mass.). Incubation with primary and alkaline-phosphatase-conjugated secondary goat anti-mouse IgG (Promega Corp., Madison, Wis.) was performed overnight at 4° C. and at room temperature for 1 h, respectively. The immunoblots were incubated with NBT/BCIP substrate (Promega Corp., Madison, Wis.) at room temperature to achieve optimum color development. The aggrecan fragments containing the ARGS neoepitope were quantitated by densitometry analysis and the percentage inhibition of aggrecan degradation by test compounds was determined.

recombinant human MMP-2 = target: T3, recombinant human MMP-2 (Homo sapiens, UniProt P08253); experiment: In vitro fluorescence assay of MMP-2 activity
T3 sequence (P08253 110-660): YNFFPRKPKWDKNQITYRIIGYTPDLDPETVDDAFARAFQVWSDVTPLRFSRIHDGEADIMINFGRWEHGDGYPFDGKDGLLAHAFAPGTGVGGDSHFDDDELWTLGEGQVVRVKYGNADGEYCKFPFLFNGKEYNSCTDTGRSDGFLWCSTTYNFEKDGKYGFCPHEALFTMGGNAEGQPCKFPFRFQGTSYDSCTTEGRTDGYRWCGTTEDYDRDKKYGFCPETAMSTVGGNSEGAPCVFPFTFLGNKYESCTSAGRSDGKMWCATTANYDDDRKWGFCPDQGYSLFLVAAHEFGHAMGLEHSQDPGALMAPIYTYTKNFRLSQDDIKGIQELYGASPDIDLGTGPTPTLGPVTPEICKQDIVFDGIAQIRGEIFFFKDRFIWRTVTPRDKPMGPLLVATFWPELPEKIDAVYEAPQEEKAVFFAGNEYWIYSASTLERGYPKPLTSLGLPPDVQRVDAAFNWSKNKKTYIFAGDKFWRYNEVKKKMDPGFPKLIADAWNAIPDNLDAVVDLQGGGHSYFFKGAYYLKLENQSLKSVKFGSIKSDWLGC

[4] = Homo sapiens, read-out: % inhibition (BC3 analysis)

pIC50 [1]: > 7.52
pKi [1]: > 8.52
pIC50 [2]: > 7.52
pKi [2]: 7.43
pIC50 (MMP-8): 5.92
pIC50 (MMP-12): 6.17
pIC50 (recombinant human MMP-2): 5.67
SMILES: CC(C)(Cc1ccc(F)cc1)NC(=O)[C@H](CCC(=O)O)NC(=O)c1ccc(-c2cccs2)cc1 [Example 8NNNNNNN, N-[2-(4-fluorophenyl)-1,1-dimethylethyl]-N^2-[4-(2-thienyl)benzoyl]-L-α-glutamine]
EC50 ([3]; human OA cartilage explants, 6 days, BC3 analysis): < 0.04 µg/mL
inhibition at 0.04 µg/mL ([3]; Homo sapiens, 0.04 ug/ml, average of 4 donors, read-out: % inhibition (BC3 analysis)): 70.2%
inhibition at 0.08 µg/mL ([3]; Homo sapiens, 0.08 ug/ml, average of 4 donors, read-out: % inhibition (BC3 analysis)): 84.5%
inhibition at 0.15 µg/mL ([3]; Homo sapiens, 0.15 ug/ml, average of 4 donors, read-out: % inhibition (BC3 analysis)): 66.7%
inhibition at 0.3 µg/mL ([3]; Homo sapiens, 0.3 ug/ml, average of 4 donors, read-out: % inhibition (BC3 analysis)): 73.1%
inhibition at 0.6 µg/mL ([3]; Homo sapiens, 0.6 ug/ml, average of 4 donors, read-out: % inhibition (BC3 analysis)): 98.9%
inhibition at 1.25 µg/mL ([3]; Homo sapiens, 1.25 ug/ml, average of 4 donors, read-out: % inhibition (BC3 analysis)): 99.4%
inhibition at 2.5 µg/mL ([3]; Homo sapiens, 2.5 ug/ml, average of 4 donors): 98.7%
inhibition at 5 µg/mL ([3]; Homo sapiens, 5 ug/ml, average of 4 donors): 100%
inhibition at 10 µg/mL ([3]; Homo sapiens, 10 ug/ml, average of 4 donors): 101%

SMILES: CC(C)(Cc1ccc(F)cc1)NC(=O)[C@H](CCC(=O)O)NC(=O)c1ccc(-c2ccc(Cl)s2)cc1 [Example 8WWWWWWW, N^2-[4-(5-chloro-2-thienyl)benzoyl]-N-[2-(4-fluorophenyl)-1,1-dimethylethyl]-L-α-glutamine]
pIC50 [1]: > 7.52
pKi [1]: > 8.52
pIC50 [2]: 7.30
pKi [2]: 7.38
pIC50 (MMP-8): 6.43
pIC50 (MMP-12): 6.20
EC50 ([3]; Homo sapiens): 0.04 to 0.16 µg/mL (≈ 0.0774 to 0.309 µM)
inhibition at 0.01 µg/mL [3, 4]: 2.85%
inhibition at 0.02 µg/mL [3, 4]: 46.4%
inhibition at 0.04 µg/mL [3, 4]: 23.5%
inhibition at 0.08 µg/mL [3, 4]: 76.9%
inhibition at 0.15 µg/mL [3, 4]: 88.5%
inhibition at 0.3 µg/mL [3, 4]: 95%
inhibition at 0.6 µg/mL [3, 4]: 98%
inhibition at 1.25 µg/mL [3, 4]: 100%
pIC50 (recombinant human MMP-2): 5.97
